Reference: patent US10966426B2, “Herbicidal compositions comprising phenylpyrimidines” (BASF SE, priority 2016, dated 2021)

Experiments:
Echinocloa crus-galli = assay: greenhouse post-emergence treatment, ECHCG; format: in vivo; conditions: ECHCG, 20 DAT
In short: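 Seeds sown per species in pots of loamy sand; seedlings either grown in place or transplanted days before treatment. Post-emergence spray of water-based liquor at 3–15 cm height. Injury rated 0–100 over 2 to 4 weeks.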

Digitaria sanguinalis = assay: greenhouse post-emergence treatment, DIGSA; format: in vivo; conditions: Digitaria sanguinalis, 480 h, 20 DAT, DIGSA
In short: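 Greenhouse test in humus-containing (~3.0%) loamy sand at species-dependent temperatures of 10-25° C. or 20-35° C.; treatments applied in water. Damage rated visually after 2–4 weeks (0 = none, 100 = complete destruction or no emergence).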

CC(C)N1C(=O)c2ccccc2NS1(=O)=O [bentazon]
% activity (Echinocloa crus-galli; bentazon solo 30 gai/ha): 0%
% activity (Echinocloa crus-galli; bentazon solo 60 gai/ha): 0%
% activity (Echinocloa crus-galli; bentazon solo 120 gai/ha): 0%
% activity (Echinocloa crus-galli; bentazon solo 240 gai/ha): 20%
inhibition at 60 g/ha (Echinocloa crus-galli; Echinochloa crus-galli, 480 h, 60 gai/ha (SL 480 g/l), Table X3, read-out: % activity, solo application): 0%
inhibition at 120 g/ha (Echinocloa crus-galli; Echinochloa crus-galli, 480 h, 120 gai/ha (SL 480 g/l), Table X3, read-out: % activity, solo application): 0%
inhibition at 240 g/ha (Echinocloa crus-galli; Echinochloa crus-galli, 480 h, 240 gai/ha (SL 480 g/l), Table X3, read-out: % activity, solo application): 20%
inhibition at 30 g/ha (Digitaria sanguinalis; 30 gai/ha (SL 480 g/l), Table X3, read-out: % activity, solo application): 0%
inhibition at 60 g/ha (Digitaria sanguinalis; 60 gai/ha (SL 480 g/l), Table X3, read-out: % activity, solo application): 0%
pest or weed control at 30 g/ha (Digitaria sanguinalis; bentazon solo 30 gai/ha): 0%
pest or weed control at 60 g/ha (Digitaria sanguinalis; bentazon solo 60 gai/ha): 0%
pest or weed control at 120 g/ha (Digitaria sanguinalis; bentazon solo 120 gai/ha): 0%
pest or weed control at 240 g/ha (Digitaria sanguinalis; bentazon solo 240 gai/ha): 30%
